Values after ≈ are worked out from the molar mass of the structure shown. Read-outs that look alike come from different tables or passages of the source.
Legend:
Format in all cases: cell-based
[1] = tested on: Candida albicans CNCM 1180; assay: Minimum fungicidal concentration, strain 5; conditions: CNCM1180, 0.5 h, read-out: MFC, strain 5
Method: (§1) A bacterial inoculum is brought into contact with different dilutions of the test product for a limited time of 30 minutes. When the contact time has ended, an aliquot of the bacterial suspension/product mixture is deposited on the surface of a gelose culture medium containing an agent for neutralizing the antibacterial activity of the product. The bactericidal concentration chosen is the minimum concentration of the product which is necessary to prevent bacterial growth. This concentration is expressed in μg/ml.
(§2) Plates containing cups receive different dilutions of the test product. These dilutions of the test product are brought into contact with the different bacterial suspensions using a multiple-site inoculator. After a contact time of 30 minutes, aliquots are transferred by means of this inoculator to the surface of a gelose medium (TSA) placed in petri dishes and containing an agent for neutralizing the activity, namely 20 g of lubrol W, 2.5 g of Tween 80, 2.5 g of sodium thiosulfate and 1% of egg yolk in 1000 ml of TSA (Difco). A reference for the efficacy of the neutralizing agent is prepared for each test product by depositing an aliquot of the dilution of the test product on the surface of the culture medium. After drying, the corresponding inoculum is deposited in the same place. A reference inoculum is prepared on a gelose medium with and without neutralizing agent. The results are read off after 48 hours of incubation at 37° C.
(§3) The antifungal activity of the products according to the invention was also determined using the method described above. The representative strain of yeast selected for the study was Candida albicans CNCM 1180 (strain 5).
This is maintained on a gelose medium of Sabouraud Dextrose Agar, marketed by Difco. The technique is identical to that described for studying the antibacterial activity. After 48 hours of culture at 37° C., the microbial growth is harvested with the aid of glass beads and 5 ml of diluent containing 1 g of tryptone and 8.5 g of sodium chloride in 1000 ml of distilled water; a further 5 ml of the diluent are then added. In a spectrophotometer, this suspension gives a 2 to 3% transmission of light at 620 nm. The inoculum corresponds to a 1/10 dilution of this microbial suspension. A 1/100 dilution of this suspension, observed between a microscope slide and cover slip through a lens of magnification 40, should show 10 cells per field, which corresponds to 1 000 000 yeasts per ml.
(§4) They indicate the minimum bactericidal concentrations (MBC) for strains 1, 2, 3 and 4 and the minimum fungicidal concentrations (MFC) for strain 5.

[2] = tested on: bacterial strains and fungal strain tested; assay: Bactericidal and fungicidal activities on the strains tested (overall statement); conditions: bacterial strains 1-4 and fungal strain 5
Method: The bactericidal and fungicidal activities of the products according to the invention were studied on different strains.
as §1, §2, §3
By way of comparison, 3-aryloxy-1-piperidinopropan-2-ol derivatives described in the literature, or similar to the compounds described, were prepared and the bactericidal and fungicidal activities of these compounds and of propranolol were measured on the same strains and under the same conditions as for the products according to the invention. The results are reported in Table II after those obtained with the products according to the invention.

[3] = tested on: Streptococcus faecalis CNCM 5855; assay: Minimum bactericidal concentration, 30 min contact, strain 2; conditions: Enterococcus faecalis, CNCM5855, 0.5 h, read-out: MBC, strain 2
Method: as §1
2 - Streptococcus faecalis CNCM 5855;
(§5) The strains are maintained on Tryptic Soy Agar (TSA) marketed by Difco.
(§6) After 24 hours of culture at 37° C., the microbial growth is harvested with the aid of glass beads and 10 ml of diluent containing 1 g of tryptone and 8.5 g of sodium chloride in 1000 ml of distilled water. The suspension formed is shaken and the percentage transmission of light at 620 nm is measured on a spectrophotometer:
(§7) The bacterial inoculum corresponds to a 1/20 dilution of this bacterial suspension.
as §2, §4

[4] = tested on: Escherichia coli CNCM 54127; assay: Minimum bactericidal concentration, 30 min contact, strain 4; conditions: CNCM54127, 0.5 h, read-out: MBC, strain 4
Method: as §1
4 - Escherichia coli CNCM 54127.
as §5, §6, §7, §2, §4

[5] = tested on: Pseudomonas aeruginosa CNCM A22; assay: Minimum bactericidal concentration, 30 min contact, strain 3; conditions: CNCMA22, 0.5 h, read-out: MBC, strain 3
Method: as §1
3 - Pseudomonas aeruginosa CNCM A22;
as §5, §6, §7, §2, §4

[6] = tested on: Staphylococcus aureus CNCM 53154; assay: Minimum bactericidal concentration, 30 min contact, strain 1; conditions: CNCM53154, 0.5 h, read-out: MBC, strain 1
Method: as §1
1 - Staphylococcus aureus CNCM 53154;
as §5, §6, §7, §2, §4

[7] = Candida albicans CNCM 1180, contact time 30 minutes, solubilizing agent given per product
[8] = Streptococcus faecalis CNCM 5855, contact time 30 minutes, solubilizing agent given per product
[9] = Escherichia coli CNCM 54127, contact time 30 minutes, solubilizing agent given per product
[10] = Pseudomonas aeruginosa CNCM A22, contact time 30 minutes, solubilizing agent given per product
[11] = Staphylococcus aureus CNCM 53154, contact time 30 minutes, solubilizing agent (water, TEG or acetone) given per product

| Structure (SMILES) | MFC [1, 7] [µg/mL] | antimicrobial activity (in words) [2] | MBC [3, 8] [µg/mL] | MBC [4, 9] [µg/mL] | MBC [5, 10] [µg/mL] | MBC [6, 11] [µg/mL] | MFC ([1]; Candida albicans) [µg/mL] | MBC [3] [µg/mL] | MBC ([4]; Escherichia coli) [µg/mL] | MBC ([5]; Pseudomonas aeruginosa) [µg/mL] | MBC ([6]; Staphylococcus aureus) [µg/mL] |
| --- | --- | --- | --- | --- | --- | --- | --- | --- | --- | --- | --- |
| CC1CCN(CC(O)COc2ccc(Br)cc2)CC1.Cl (stereo not drawn) [Product A, 3-(4-bromophenoxy)-1-(4-methylpiperidino)propan-2-ol hydrochloride, reference compound] | 5000 | no antimicrobial activity | 1000 | 1000 | 1000 | > 2000 |  |  |  |  |  |
| Cl.OC(COc1ccccc1)CN1CCC(c2ccccc2)CC1 (stereo not drawn) [Product B, 3-phenoxy-1-(4-phenylpiperidino)propan-2-ol hydrochloride, reference compound] | > 1000 | no antimicrobial activity | > 1000 | > 1000 | > 1000 | > 1000 |  |  |  |  |  |
| Cl.OC(CSc1ccc(Br)cc1)CN1CCCCC1 (stereo not drawn) [Product C, 3-(4-bromophenylthio)-1-piperidinopropan-2-ol hydrochloride, reference compound] | 1000 | no antimicrobial activity | > 1000 | > 1000 | > 1000 | > 1000 |  |  |  |  |  |
| CC(C)NCC(O)COc1cccc2ccccc12 (stereo not drawn) [Propranolol, propranolol, reference compound] |  | no antimicrobial activity |  |  |  |  | 5000 (≈ 19.3 mM) | 1000 (≈ 3.86 mM) | 1000 (≈ 3.86 mM) | 1000 (≈ 3.86 mM) | 5000 (≈ 19.3 mM) |

Reference: patent US5036077A, “1-(benzylpiperidino)propan-2-ol derivatives, their preparation, their use as antimicrobial agents and the products in which they are present” (Sanofi, priority 1987, dated 1991)
